In article PMC5218480 (PLoS ONE, 2017):

System: MV-4-11 cells
Test: Gene expression microarray analysis (Affymetrix PrimeView) and GSEA
Assay type: cell-based, human
Design: RFU PODN (11730768_x_at) / Fold change /veh PODN (11730768_x_at) / RFU LINC00158 (11744669_a_at) / Fold change /veh LINC00158 (11744669_a_at) / RFU DUSP10 (11751237_a_at) / Fold change /veh DUSP10 (11751237_a_at) / RFU ID3 (11757404_x_at) / Fold change /veh ID3 (11757404_x_at) / RFU PLEKHG5 (11737974_s_at) / Fold change /veh PLEKHG5 (11737974_s_at) / RFU LRRC4B (11730491_at) / Fold change /veh LRRC4B (11730491_at) / RFU GIMAP4 (11747438_a_at) / Fold change /veh GIMAP4 (11747438_a_at) / RFU KRT8 (11758183_x_at) / Fold change /veh KRT8 (11758183_x_at) / RFU CNN1 (11734310_a_at) / Fold change /veh CNN1 (11734310_a_at) / RFU VPS37D (11726825_at) / Fold change /veh VPS37D (11726825_at) / RFU C10orf10 (11716522_x_at) / Fold change /veh C10orf10 (11716522_x_at) / RFU KIR2DL2 /// KIR2DL4 /// KIR2DL5A /// KIR2DL5B /// KIR2DS1 /// KIR2DS2 /// KIR2DS3 /// KIR2DS4 /// KIR3DL3 /// KIR3DL3 /// KIR3DS1 (11738374_at) / Fold change /veh KIR2DL2 /// KIR2DL4 /// KIR2DL5A /// KIR2DL5B /// KIR2DS1 /// KIR2DS2 /// KIR2DS3 /// KIR2DS4 /// KIR3DL3 /// KIR3DL3 /// KIR3DS1 (11738374_at) / RFU C1QL1 (11718748_at) / Fold change /veh C1QL1 (11718748_at) / RFU TMPRSS4 (11747572_a_at) / Fold change /veh TMPRSS4 (11747572_a_at) / RFU HAMP (11756126_x_at) / Fold change /veh HAMP (11756126_x_at) / RFU RNFT2 (11725882_a_at) / Fold change /veh RNFT2 (11725882_a_at) / RFU NR4A2 (11747474_a_at) / Fold change /veh NR4A2 (11747474_a_at) / RFU ABCC12 (11746883_a_at) / Fold change /veh ABCC12 (11746883_a_at) / RFU TMEM136 (11760407_x_at) / Fold change /veh TMEM136 (11760407_x_at) / RFU CLDN22 /// WWC2 (11732394_at) / Fold change /veh CLDN22 /// WWC2 (11732394_at) / RFU HLA-DPB1 (11760878_x_at) / Fold change /veh HLA-DPB1 (11760878_x_at) / RFU SPINT1 (11716480_a_at) / Fold change /veh SPINT1 (11716480_a_at) / RFU GAP43 (11754022_s_at) / Fold change /veh GAP43 (11754022_s_at) / RFU A4GNT (11735810_at) / Fold change /veh A4GNT (11735810_at) / RFU PRB3 (11715151_x_at) / Fold change /veh PRB3 (11715151_x_at) / RFU TUBB4B (11761932_at) / Fold change /veh TUBB4B (11761932_at) / RFU CAPN14 (11732068_a_at) / Fold change /veh CAPN14 (11732068_a_at) / RFU TMCC2 (11721928_a_at) / Fold change /veh TMCC2 (11721928_a_at) / RFU IRGQ (11745062_a_at) / Fold change /veh IRGQ (11745062_a_at) / RFU FAM174B (11720279_a_at) / Fold change /veh FAM174B (11720279_a_at) / RFU TMPRSS4 (11748680_a_at) / Fold change /veh TMPRSS4 (11748680_a_at) / RFU FAM212B (11763350_a_at) / Fold change /veh FAM212B (11763350_a_at) / RFU PLEKHG5 (11743358_a_at) / Fold change /veh PLEKHG5 (11743358_a_at) / RFU ZSCAN30 (11745921_a_at) / Fold change /veh ZSCAN30 (11745921_a_at) / RFU CMKLR1 (11741424_a_at) / Fold change /veh CMKLR1 (11741424_a_at) / RFU LOC101060620 /// MAPK8IP1 (11723275_at) / Fold change /veh LOC101060620 /// MAPK8IP1 (11723275_at) / RFU SPTSSB (11747773_x_at) / Fold change /veh SPTSSB (11747773_x_at) / RFU PRSS12 (11739890_at) / Fold change /veh PRSS12 (11739890_at) / RFU BIN1 (11741810_x_at) / Fold change /veh BIN1 (11741810_x_at) / RFU WNT11 (11732464_a_at) / Fold change /veh WNT11 (11732464_a_at) / RFU C10orf10 (11716521_a_at) / Fold change /veh C10orf10 (11716521_a_at) / RFU C5orf56 (11738089_at) / Fold change /veh C5orf56 (11738089_at) / RFU CYB561 (11721691_x_at) / Fold change /veh CYB561 (11721691_x_at) / RFU ANKRD19P (11752326_a_at) / Fold change /veh ANKRD19P (11752326_a_at) / RFU OR2T12 /// OR2T33 /// OR2T8 (11738714_s_at) / Fold change /veh OR2T12 /// OR2T33 /// OR2T8 (11738714_s_at) / RFU VCAN (11748164_a_at) / Fold change /veh VCAN (11748164_a_at) / RFU JSRP1 (11732532_at) / Fold change /veh JSRP1 (11732532_at) / RFU KRTAP10-11 (11738290_x_at) / Fold change /veh KRTAP10-11 (11738290_x_at) / RFU MYO3A (11730013_a_at) / Fold change /veh MYO3A (11730013_a_at) / RFU EBF3 (11725865_a_at) / Fold change /veh EBF3 (11725865_a_at) / RFU CAMK2N1 (11719241_x_at) / Fold change /veh CAMK2N1 (11719241_x_at) / RFU C5orf56 (11738088_a_at) / Fold change /veh C5orf56 (11738088_a_at) / RFU OLFML3 (11715873_a_at) / Fold change /veh OLFML3 (11715873_a_at) / RFU LOC100653217 /// NTM (11731650_a_at) / Fold change /veh LOC100653217 /// NTM (11731650_a_at) / RFU MAPK11 (11762145_a_at) / Fold change /veh MAPK11 (11762145_a_at) / RFU FIZ1 (11724087_x_at) / Fold change /veh FIZ1 (11724087_x_at) / RFU OASL (11726364_x_at) / Fold change /veh OASL (11726364_x_at) / RFU SOX15 (11748057_x_at) / Fold change /veh SOX15 (11748057_x_at) / RFU CD79A (11719716_a_at) / Fold change /veh CD79A (11719716_a_at) / RFU HIST1H1D (11736915_at) / Fold change /veh HIST1H1D (11736915_at) / RFU CASKIN2 (11723855_a_at) / Fold change /veh CASKIN2 (11723855_a_at) / RFU LOC730098 (11760151_x_at) / Fold change /veh LOC730098 (11760151_x_at) / RFU OR4N2 (11742367_at) / Fold change /veh OR4N2 (11742367_at) / RFU PRRT2 (11749266_a_at) / Fold change /veh PRRT2 (11749266_a_at) / RFU SNX32 (11753110_a_at) / Fold change /veh SNX32 (11753110_a_at) / RFU CDHR5 (11726645_a_at) / Fold change /veh CDHR5 (11726645_a_at) / RFU RCAN1 (11760418_a_at) / Fold change /veh RCAN1 (11760418_a_at) / RFU FAM167A (11723789_a_at) / Fold change /veh FAM167A (11723789_a_at) / RFU FAM26E (11764081_at) / Fold change /veh FAM26E (11764081_at) / RFU ISYNA1 (11749810_s_at) / Fold change /veh ISYNA1 (11749810_s_at) / RFU ACY1 (11761880_at) / Fold change /veh ACY1 (11761880_at) / RFU 11764098_at / Fold change /veh 11764098_at / RFU SAMD14 (11745864_x_at) / Fold change /veh SAMD14 (11745864_x_at) / RFU NPB (11741838_a_at) / Fold change /veh NPB (11741838_a_at) / RFU TMPRSS6 (11731388_a_at) / Fold change /veh TMPRSS6 (11731388_a_at) / RFU KRTAP10-2 (11738614_at) / Fold change /veh KRTAP10-2 (11738614_at) / RFU ARHGAP8 /// PRR5-ARHGAP8 (11727945_x_at) / Fold change /veh ARHGAP8 /// PRR5-ARHGAP8 (11727945_x_at) / RFU KRTAP5-7 /// NADSYN1 (11734609_at) / Fold change /veh KRTAP5-7 /// NADSYN1 (11734609_at) / RFU RASL12 (11751679_a_at) / Fold change /veh RASL12 (11751679_a_at) / RFU CDKN2B (11736163_a_at) / Fold change /veh CDKN2B (11736163_a_at) / RFU PRF1 (11729649_at) / Fold change /veh PRF1 (11729649_at) / RFU, ZNF638 /// ZNF638-IT1 / Fold change vs veh, ZNF638 /// ZNF638-IT1 / RFU, PANK3 / Fold change vs veh, PANK3 / RFU, SH3YL1 / Fold change vs veh, SH3YL1 / RFU, ZEB2 / Fold change vs veh, ZEB2 / RFU, NRIP1 / Fold change vs veh, NRIP1 / RFU, PTTG1IP / Fold change vs veh, PTTG1IP / RFU, CAPN2 / Fold change vs veh, CAPN2 / RFU, MED14 / Fold change vs veh, MED14 / RFU, SNORA58 / Fold change vs veh, SNORA58 / RFU, C1orf63 / Fold change vs veh, C1orf63 / RFU, LRRFIP1 / Fold change vs veh, LRRFIP1 / RFU, NDUFAF7 / Fold change vs veh, NDUFAF7 / RFU, SLC12A2 / Fold change vs veh, SLC12A2 / RFU, IBTK / Fold change vs veh, IBTK / RFU, ESF1 / Fold change vs veh, ESF1 / Fold change vs veh, TMEM50B / RFU, TAOK1 / Fold change vs veh, TAOK1 / RFU, ACBD3 / Fold change vs veh, ACBD3 / RFU, TMA16 / Fold change vs veh, TMA16 / RFU, RWDD3 / Fold change vs veh, RWDD3 / RFU, BCAT1 / Fold change vs veh, BCAT1 / RFU, EDEM3 / Fold change vs veh, EDEM3 / RFU, TMEM33 / Fold change vs veh, TMEM33 / RFU, WDR75 / Fold change vs veh, WDR75 / RFU, AHCTF1 / Fold change vs veh, AHCTF1 / RFU, TFRC / Fold change vs veh, TFRC / RFU, ZDHHC17 / Fold change vs veh, ZDHHC17 / RFU, NOM1 / Fold change vs veh, NOM1 / RFU, ARL8B / Fold change vs veh, ARL8B / RFU, ZBTB11 / Fold change vs veh, ZBTB11 / RFU, TAMM41 / Fold change vs veh, TAMM41 / RFU, KIAA1704 /// LOC100996395 / Fold change vs veh, KIAA1704 /// LOC100996395 / RFU, ING1 / Fold change vs veh, ING1 / RFU, TRMT61B / Fold change vs veh, TRMT61B / RFU, FUBP3 / Fold change vs veh, FUBP3 / RFU, TP53 / Fold change vs veh, TP53 / RFU, TNKS2 / Fold change vs veh, TNKS2 / RFU, ZFP14 / Fold change vs veh, ZFP14 / RFU, ACTR2 / Fold change vs veh, ACTR2 / RFU, PPP3R1 / Fold change vs veh, PPP3R1 / RFU, PIK3R1 / Fold change vs veh, PIK3R1 / RFU, HNRNPA1 / Fold change vs veh, HNRNPA1 / RFU, RNF170 / Fold change vs veh, RNF170 / RFU, ZNF28 / Fold change vs veh, ZNF28 / RFU, RNGTT / Fold change vs veh, RNGTT / RFU, OGT / Fold change vs veh, OGT / RFU, BRD1 / Fold change vs veh, BRD1 / RFU, MARS / Fold change vs veh, MARS / RFU, ZNF655 / Fold change vs veh, ZNF655 / RFU, FAHD1 / Fold change vs veh, FAHD1 / RFU, BDP1 / Fold change vs veh, BDP1 / RFU, LRRCC1 / Fold change vs veh, LRRCC1 / RFU, ARID1A / Fold change vs veh, ARID1A / RFU, ZNF146 / Fold change vs veh, ZNF146 / RFU, ZNF330 / Fold change vs veh, ZNF330 / RFU, GPN3 / Fold change vs veh, GPN3 / RFU, C9orf123 / Fold change vs veh, C9orf123 / RFU, N4BP2L2 / Fold change vs veh, N4BP2L2 / RFU, ARFIP1 / Fold change vs veh, ARFIP1 / RFU, FAM179B / Fold change vs veh, FAM179B / RFU, BCL10 / Fold change vs veh, BCL10 / RFU, UHRF1BP1L / Fold change vs veh, UHRF1BP1L / RFU, BET1 / Fold change vs veh, BET1 / RFU, CNOT2 / Fold change vs veh, CNOT2 / RFU, ZNF268 / Fold change vs veh, ZNF268 / Fold change vs veh, ZNF507 / RFU, DGCR2 / Fold change vs veh, DGCR2 / RFU, WDSUB1 / Fold change vs veh, WDSUB1 / Fold change vs veh, HSP90B1 /// MIR3652 / RFU, ADSS / Fold change vs veh, ADSS / RFU, GK / Fold change vs veh, GK / RFU, ZNF148 / Fold change vs veh, ZNF148 / RFU, TAF9 / Fold change vs veh, TAF9 / RFU, SLC1A5 / Fold change vs veh, SLC1A5 / RFU, SLMO2 / Fold change vs veh, SLMO2 / RFU, ABCC4 / Fold change vs veh, ABCC4 / RFU, LOC101060439 /// RAP1B / Fold change vs veh, LOC101060439 /// RAP1B / RFU, RFX7 / Fold change vs veh, RFX7 / RFU, GTPBP10 / Fold change vs veh, GTPBP10 / RFU, CNEP1R1 / Fold change vs veh, CNEP1R1 / RFU, BIVM-ERCC5 /// ERCC5 / Fold change vs veh, BIVM-ERCC5 /// ERCC5 / RFU, ILF3 / Fold change vs veh, ILF3 / RFU 11762660_at / Fold change /veh 11762660_at / RFU VCAN (11757783_s_at) / Fold change /veh VCAN (11757783_s_at) / RFU DDX43 (11728927_at) / Fold change /veh DDX43 (11728927_at) / RFU KRT8 (11758188_x_at) / Fold change /veh KRT8 (11758188_x_at) / RFU NKD1 (11759106_at) / Fold change /veh NKD1 (11759106_at) / RFU SRD5A1 (11742802_a_at) / Fold change /veh SRD5A1 (11742802_a_at) / RFU TPSAB1 /// TPSB2 (11721975_s_at) / Fold change /veh TPSAB1 /// TPSB2 (11721975_s_at) / RFU GSTM3 (11746129_a_at) / Fold change /veh GSTM3 (11746129_a_at) / RFU IL23R (11737362_x_at) / Fold change /veh IL23R (11737362_x_at) / RFU TMEM51 (11727254_a_at) / Fold change /veh TMEM51 (11727254_a_at) / RFU PIWIL2 (11732686_x_at) / Fold change /veh PIWIL2 (11732686_x_at) / RFU ORM1 (11744905_x_at) / Fold change /veh ORM1 (11744905_x_at) / RFU CCDC152 (11743942_at) / Fold change /veh CCDC152 (11743942_at) / RFU ECM1 (11717891_a_at) / Fold change /veh ECM1 (11717891_a_at) / RFU IL23R (11748794_a_at) / Fold change /veh IL23R (11748794_a_at) / RFU TNFAIP8L3 (11732012_x_at) / Fold change /veh TNFAIP8L3 (11732012_x_at) / RFU MBOAT4 (11741988_at) / Fold change /veh MBOAT4 (11741988_at) / RFU 11764193_at / Fold change /veh 11764193_at / RFU TMEM53 (11763286_at) / Fold change /veh TMEM53 (11763286_at) / RFU MAGEB2 (11727129_at) / Fold change /veh MAGEB2 (11727129_at) / RFU TMEM200A (11744735_a_at) / Fold change /veh TMEM200A (11744735_a_at) / RFU CCDC152 (11751479_a_at) / Fold change /veh CCDC152 (11751479_a_at) / RFU FAM211A (11726209_a_at) / Fold change /veh FAM211A (11726209_a_at) / RFU RGS16 (11746705_a_at) / Fold change /veh RGS16 (11746705_a_at) / RFU VCAN (11755009_s_at) / Fold change /veh VCAN (11755009_s_at) / RFU RHOB (11743442_s_at) / Fold change /veh RHOB (11743442_s_at) / RFU RGS16 (11720943_a_at) / Fold change /veh RGS16 (11720943_a_at) / RFU RGS16 (11720944_at) / Fold change /veh RGS16 (11720944_at) / RFU, VPS4B / Fold change vs veh, VPS4B / RFU, CREB1 / Fold change vs veh, CREB1 / RFU, DNAJC13 / Fold change vs veh, DNAJC13 / RFU, GNAQ / Fold change vs veh, GNAQ / RFU, CDK5R1 / Fold change vs veh, CDK5R1 / RFU, ZRANB3 / Fold change vs veh, ZRANB3 / RFU, CUL4A / Fold change vs veh, CUL4A / RFU, CCNY / Fold change vs veh, CCNY / RFU, UFL1 / Fold change vs veh, UFL1 / RFU, COG3 / Fold change vs veh, COG3 / RFU, DIAPH2 / Fold change vs veh, DIAPH2 / RFU, SKA2 / Fold change vs veh, SKA2 / RFU, AFF3 / Fold change vs veh, AFF3 / RFU, LMF1 / Fold change vs veh, LMF1 / RFU, IPO11 / Fold change vs veh, IPO11 / RFU, DFFB / Fold change vs veh, DFFB / RFU, FOXP1 / Fold change vs veh, FOXP1 / RFU, CARD8 / Fold change vs veh, CARD8 / RFU, STRN3 / Fold change vs veh, STRN3 / RFU, ADK / Fold change vs veh, ADK / RFU, RASSF2 / Fold change vs veh, RASSF2 / RFU, WIPF1 / Fold change vs veh, WIPF1 / RFU, LARP1B / Fold change vs veh, LARP1B / RFU, RASA1 / Fold change vs veh, RASA1 / RFU, RB1 / Fold change vs veh, RB1 / RFU, PPFIA1 / Fold change vs veh, PPFIA1 / RFU, MAT2A / Fold change vs veh, MAT2A / RFU, CCT5 / Fold change vs veh, CCT5 / RFU, WDR92 / Fold change vs veh, WDR92 / RFU, CUX1 / Fold change vs veh, CUX1 / RFU, TTC7A / Fold change vs veh, TTC7A / RFU, TMEM135 / Fold change vs veh, TMEM135 / RFU, DEPTOR / Fold change vs veh, DEPTOR / RFU, CPM / Fold change vs veh, CPM / RFU, DNAJB6 / Fold change vs veh, DNAJB6 / RFU, CACNA2D3 / Fold change vs veh, CACNA2D3 / RFU, DTX4 / Fold change vs veh, DTX4 / RFU, TFCP2 / Fold change vs veh, TFCP2 / RFU, GMCL1 /// GMCL1P1 / Fold change vs veh, GMCL1 /// GMCL1P1 / RFU, AEBP2 / Fold change vs veh, AEBP2 / RFU, SNHG1 /// SNORD22 /// SNORD25 /// SNORD26 /// SNORD27 /// SNORD28 /// SNORD29 /// SNORD31 / Fold change vs veh, SNHG1 /// SNORD22 /// SNORD25 /// SNORD26 /// SNORD27 /// SNORD28 /// SNORD29 /// SNORD31 / Fold change (Aza/veh), C12orf56 (ProbeSet 11735607_a_at) / Fold change (ACY-1035/veh), C12orf56 (ProbeSet 11735607_a_at) / Fold change (Aza/veh), FGFR1OP (ProbeSet 11751329_s_at) / Fold change (ACY-1035/veh), FGFR1OP (ProbeSet 11751329_s_at) / Fold change (Aza/veh), VPS36 (ProbeSet 11739960_a_at) / Fold change (ACY-1035/veh), VPS36 (ProbeSet 11739960_a_at) / RFU SYPL1 (11715823_x_at) / Fold change /veh SYPL1 (11715823_x_at) / RFU IGFBP7 (11715501_s_at) / Fold change /veh IGFBP7 (11715501_s_at) / RFU REEP3 (11722064_at) / Fold change /veh REEP3 (11722064_at) / RFU IGLL1 (11728026_x_at) / Fold change /veh IGLL1 (11728026_x_at): dose or concentration left out as unconfirmed
Conditions: MV-4-11 cells, 48 hours

In the case of `Nc1ccc(-c2cccs2)cc1NC(=O)c1ccc2c(c1)cc(C1CC1)n2CCN1CCOCC1` [ACY-1035], the “RFU REEP3 (11722064_at)” value was 19.86 RFU.
